Results: US20100041089A1, “IMPROVED METHOD FOR DETECTING CHEMICAL […]” (priority 2006, published 2010)

Test system: yeast genes (expressed mRNA)
Experiment: DNA chip measurement of expressed mRNA of yeast genes after culture with a toxic chemical substance
Assay type: cell-based, Saccharomyces cerevisiae S288C
Conditions: for level of expressed mRNA in the presence of chemical substance / level in the absence of chemical substance: cultured two hours with the chemical substance; for The level of expressed mRNA in the presence of chemical substance/The level of expressed mRNA in the absence of chemical substance: cultured two hours with substance
Procedure: Yeast (Saccharomyces cerevisiae S288C (a SUC2mal mel gap2 CUP1)) were cultured at 25° C. on YPD medium (yeast extract 1%, polypeptone 2%, glucose 2%). One of toxic chemical substances was added to the cell at logarithmic growth phase, and the cell was further cultured for two hours. Cell was cultured without any chemical substance in the same condition, and was used as a control. Concentrations of the chemical substances were defined to inhibit the growth of the yeast but not lead to death.
After the completion of cultivation, the culture was centrifuged to collect the cells. To the cells, sodium acetate buffer (50 mM sodium acetate, 10 mM EDTA, 1% SDS) was added, and the mixture was shaken at 65° C. for five minutes, followed by returning to room temperature, and obtaining the supernatant, which procedure was repeated two times. To the supernatant, ½ amount of a solution of phenol/chloroform (1:1) was added, and the mixture was centrifuged to give a supernatant, an equal amount of chloroform was added, and the mixture was centrifuged to give a supernatant. To the supernatant, an equal amount of isopropanol containing 0.3 M sodium acetate was added, and the mixture was allowed to stand at room temperature for 30 minutes, after which the mixture was centrifuged to give sediment of the whole RNAs. Seventy % ethanol was added to the sediment, and the mixture was again centrifuged to give sediment, which was then dried and dissolved in water. mRNA was isolated from the whole RNAs as followings. In view of the fact that a poly A chain is attached to the 3′ terminus of mRNA, a polynucleotide having a poly T structure which was immobilized on the surface of latex beads was used to trap the mRNA, and then the mRNA was washed and eluted with spine column (Oligotex-dT30<Super>mRNA Purification Kit, Takara). Reverse transcription of the mRNA was conducted with a reverse transcriptase (Super Script II Reverse Transcriptase; catalogue No. 18064-014, GibcoBRL) using fluorescence-labeled nucleotides to give cDNAs that were introduced with Cy3-dUTP or Cy5-dUTP during the reverse transcription.
The labeled cDNAs were dissolved in TE buffer (10 mM Tris-HCl/1 mM EDTA, pH 8.0), and the solution was dropped on the DNA chip containing the whole genes of yeast (DNA Chip Research Inc. Japan) so that the cDNAs were hybridized on the DNA chip at 65° C. for over 12 hours. The fluoresces intensity of the DNA chip was read with a scanner, and the ratio relative to the fluorescence intensity resulting from the absence of chemical substance was estimated as the following, which is shown in Tables 1 to 9.
In the Tables, “Intensity” indicated in the rightmost column is a value of the level of expressed mRNA of each gene in control cells as divided by the average level of the expressions of the whole genes. A gene of which mRNA level is lower in control, and is higher in cases of addition of chemical substance, is especially useful in the detection of toxic substances.
Here, when a ratio of an amount of mRNA expressed in the presence of the chemical substance to an amount of mRNA expressed in the absence of the chemical substance is two or more, then it is considered significant.

## CCCCCCCCCCCCc1ccc(S(=O)(=O)[O-])cc1.[Na+] [(17), Sodium dodecylbenzosulfonate]
Yeast gene YDR128W
  level of expressed mRNA in the presence of chemical substance / level in the absence of chemical substance: 0.9
Yeast gene YDR133C
  level of expressed mRNA in the presence of chemical substance / level in the absence of chemical substance: 0.6
Yeast gene YDR250C
  level of expressed mRNA in the presence of chemical substance / level in the absence of chemical substance: 0.9
Yeast gene YDR278C
  level of expressed mRNA in the presence of chemical substance / level in the absence of chemical substance: 0.7
Yeast gene YDR281C
  level of expressed mRNA in the presence of chemical substance / level in the absence of chemical substance: 1.5
Yeast gene YDR330W
  The level of expressed mRNA in the presence of chemical substance/The level of expressed mRNA in the absence of chemical substance: 1.5
Yeast gene YDR366C
  level of expressed mRNA in the presence of chemical substance / level in the absence of chemical substance: 1.2
Yeast gene YDR411C
  The level of expressed mRNA in the presence of chemical substance/The level of expressed mRNA in the absence of chemical substance: 1.5
Yeast gene YDR511W
  The level of expressed mRNA in the presence of chemical substance/The level of expressed mRNA in the absence of chemical substance: 1.3
Yeast gene YDR545W
  The level of expressed mRNA in the presence of chemical substance/The level of expressed mRNA in the absence of chemical substance: 0.9
Yeast gene YEL001C
  The level of expressed mRNA in the presence of chemical substance/The level of expressed mRNA in the absence of chemical substance: 0.7
Yeast gene YER004W
  The level of expressed mRNA in the presence of chemical substance/The level of expressed mRNA in the absence of chemical substance: 1.4
Yeast gene YER035W
  The level of expressed mRNA in the presence of chemical substance/The level of expressed mRNA in the absence of chemical substance: 2.2
Yeast gene YER079W
  The level of expressed mRNA in the presence of chemical substance/The level of expressed mRNA in the absence of chemical substance: 1.0
Yeast gene YER106W
  The level of expressed mRNA in the presence of chemical substance/The level of expressed mRNA in the absence of chemical substance: 0.8
Yeast gene YER158C
  The level of expressed mRNA in the presence of chemical substance/The level of expressed mRNA in the absence of chemical substance: 1.6
Yeast gene YER163C
  The level of expressed mRNA in the presence of chemical substance/The level of expressed mRNA in the absence of chemical substance: 1.2
Yeast gene YER175C
  The level of expressed mRNA in the presence of chemical substance/The level of expressed mRNA in the absence of chemical substance: 0.9
Yeast gene YFL006W
  The level of expressed mRNA in the presence of chemical substance/The level of expressed mRNA in the absence of chemical substance: 1.0
Yeast gene YFL010C
  The level of expressed mRNA in the presence of chemical substance/The level of expressed mRNA in the absence of chemical substance: 1.9
Yeast gene YFL024C
  The level of expressed mRNA in the presence of chemical substance/The level of expressed mRNA in the absence of chemical substance: 0.9
Yeast gene YFL032W
  The level of expressed mRNA in the presence of chemical substance/The level of expressed mRNA in the absence of chemical substance: 1.7
Yeast gene YFR026C
  level of expressed mRNA in the presence of chemical substance / level in the absence of chemical substance: 1.1
Yeast gene YGL037C
  The level of expressed mRNA in the presence of chemical substance/The level of expressed mRNA in the absence of chemical substance: 1.3
Yeast gene YGL047W
  The level of expressed mRNA in the presence of chemical substance/The level of expressed mRNA in the absence of chemical substance: 1.1
Yeast gene YGL053W
  The level of expressed mRNA in the presence of chemical substance/The level of expressed mRNA in the absence of chemical substance: 2.2
Yeast gene YGL088W
  level of expressed mRNA in the presence of chemical substance / level in the absence of chemical substance: 0.5
Yeast gene YGL121C
  The level of expressed mRNA in the presence of chemical substance/The level of expressed mRNA in the absence of chemical substance: 2.7
Yeast gene YGL199C
  The level of expressed mRNA in the presence of chemical substance/The level of expressed mRNA in the absence of chemical substance: 1.2
Yeast gene YGR038W
  level of expressed mRNA in the presence of chemical substance / level in the absence of chemical substance: 1.1
Yeast gene YGR101W
  The level of expressed mRNA in the presence of chemical substance/The level of expressed mRNA in the absence of chemical substance: 1.0
Yeast gene YGR110W
  The level of expressed mRNA in the presence of chemical substance/The level of expressed mRNA in the absence of chemical substance: 0.9
Yeast gene YGR130C
  The level of expressed mRNA in the presence of chemical substance/The level of expressed mRNA in the absence of chemical substance: 1.3
Yeast gene YGR139W
  level of expressed mRNA in the presence of chemical substance / level in the absence of chemical substance: 1.0
Yeast gene YGR154C
  The level of expressed mRNA in the presence of chemical substance/The level of expressed mRNA in the absence of chemical substance: 1.0
Yeast gene YGR221C
  The level of expressed mRNA in the presence of chemical substance/The level of expressed mRNA in the absence of chemical substance: 1.3
Yeast gene YGR243W
  level of expressed mRNA in the presence of chemical substance / level in the absence of chemical substance: 2.1
Yeast gene YGR293C
  level of expressed mRNA in the presence of chemical substance / level in the absence of chemical substance: 0.8
Yeast gene YHL006C
  level of expressed mRNA in the presence of chemical substance / level in the absence of chemical substance: 1.1
Yeast gene YHR095W
  level of expressed mRNA in the presence of chemical substance / level in the absence of chemical substance: 0.8
Yeast gene YHR105W
  level of expressed mRNA in the presence of chemical substance / level in the absence of chemical substance: 1.0
Yeast gene YHR138C
  The level of expressed mRNA in the presence of chemical substance/The level of expressed mRNA in the absence of chemical substance: 5.0
Yeast gene YHR181W
  level of expressed mRNA in the presence of chemical substance / level in the absence of chemical substance: 0.9
Yeast gene YHR199C
  The level of expressed mRNA in the presence of chemical substance/The level of expressed mRNA in the absence of chemical substance: 1.1
Yeast gene YIL023C
  The level of expressed mRNA in the presence of chemical substance/The level of expressed mRNA in the absence of chemical substance: 1.2
Yeast gene YIL041W
  The level of expressed mRNA in the presence of chemical substance/The level of expressed mRNA in the absence of chemical substance: 0.8
Yeast gene YIL087C
  The level of expressed mRNA in the presence of chemical substance/The level of expressed mRNA in the absence of chemical substance: 1.7
Yeast gene YIL127C
  level of expressed mRNA in the presence of chemical substance / level in the absence of chemical substance: 0.7
Yeast gene YJL017W
  level of expressed mRNA in the presence of chemical substance / level in the absence of chemical substance: 1.0
Yeast gene YJL037W
  level of expressed mRNA in the presence of chemical substance / level in the absence of chemical substance: 1.3
Yeast gene YJL057C
  The level of expressed mRNA in the presence of chemical substance/The level of expressed mRNA in the absence of chemical substance: 1.4
Yeast gene YJL066C
  The level of expressed mRNA in the presence of chemical substance/The level of expressed mRNA in the absence of chemical substance: 1.4
Yeast gene YJL082W
  The level of expressed mRNA in the presence of chemical substance/The level of expressed mRNA in the absence of chemical substance: 0.6
